Reference: patent US8557816B2, “Aurora kinase modulators and method of use” (Amgen Inc., priority 2007, dated 2013)

Assays:
[1] = target: T1, AuroraA-TPX2 (Homo sapiens, UniProt O14965); experiment: AuroraA-TPX2 Homogeneous Time Resolved Fluorescent (HTRF) kinase assay; type: biochemical; conditions: average; read-out: AurA_IC50_IP (uM Avg)
T1 construct: 20 μL of AuroraA-TPX2 KD GST for a final volume of about 41 μL; GST
T1 sequence (O14965 133-383 limits assumed): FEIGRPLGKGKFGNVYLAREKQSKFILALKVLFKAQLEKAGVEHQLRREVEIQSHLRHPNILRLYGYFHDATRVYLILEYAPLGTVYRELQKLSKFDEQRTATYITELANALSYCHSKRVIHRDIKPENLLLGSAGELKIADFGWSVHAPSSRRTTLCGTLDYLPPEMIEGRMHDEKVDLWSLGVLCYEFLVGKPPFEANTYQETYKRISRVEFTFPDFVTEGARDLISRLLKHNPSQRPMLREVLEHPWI
T1 sequence (Q9ULW0 1-43 partner limits assumed): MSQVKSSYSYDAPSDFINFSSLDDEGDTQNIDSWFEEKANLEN
Outline: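 HTRF read-out (Eu 615 nm to APC 655 nm) of phosphorylated biotin-PLK, detected with 0.02 nM europium anti-phosphoPLK antibody and 0.0005 mg/mL SA-APC after overnight equilibration.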

[2] = target: T2, AuroraB (Homo sapiens, UniProt Q96GD4); experiment: AuroraB Homogeneous Time Resolved Fluorescent (HTRF) kinase assay; type: biochemical; conditions: average; read-out: AurB_IC50_IP (uM Avg)
T2 construct: 20 μL of AuroraB FL H is for a final volume of 41 μL; His
Outline: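 Full-length His-tagged kinase phosphorylates biotinylated Histone H3 (0.1 μM final) with ATP in pH 7.5 HEPES containing MgCl, MnCl, DTT and BSA for about 90 min. EDTA-containing detection mix with SA-APC and Eu-anti-phosphoHistone H3 then equilibrated about 60 min; HTRF read with 320 nm excitation, emissions 615/655 nm.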

T2 sequence (Q96GD4 whole entry): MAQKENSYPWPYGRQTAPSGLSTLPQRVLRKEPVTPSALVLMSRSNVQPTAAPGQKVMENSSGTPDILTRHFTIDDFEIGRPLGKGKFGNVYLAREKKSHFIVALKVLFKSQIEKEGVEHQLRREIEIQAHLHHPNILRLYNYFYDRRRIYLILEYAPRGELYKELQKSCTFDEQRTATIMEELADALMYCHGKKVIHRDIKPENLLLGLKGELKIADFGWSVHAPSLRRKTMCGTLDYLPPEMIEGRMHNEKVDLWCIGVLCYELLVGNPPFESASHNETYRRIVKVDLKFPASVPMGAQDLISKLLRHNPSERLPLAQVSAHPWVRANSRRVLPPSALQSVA

Row | Structure (SMILES) | IC50 [1] [µM] | IC50 [2] [µM]
1 | c1ccc2c(-c3ccc4c(c3)OCO4)nnc(Nc3ccc(Sc4ccnc5ccncc45)cc3)c2c1 [compound 427] | 0.055 | 0.007
2 | Cc1csc(-c2nnc(Nc3ccc(Sc4ccnc5ccncc45)cc3)c3ccccc23)c1 [compound 428] | 0.032 | 0.013
3 | Cc1csc(-c2nnc(Nc3ccc(Oc4ccnc5ccncc45)cc3)c3ccccc23)c1 [compound 429] | 0.046 | 0.012
4 | Clc1ccc(-c2nnc(Nc3ccc(Sc4ccnc5ccncc45)cc3)c3ccccc23)nc1 [compound 430] | 0.084 | 0.007
5 | COCCOc1ccc2c(Sc3ccc(Nc4nnc(-c5ccc(Cl)cc5)c5ccccc45)cc3)ccnc2c1 [compound 431] | 0.012 | 0.018
6 | Cc1ccc(-c2nnc(Nc3ccc(Sc4ccnc5ccncc45)cc3)c3ccccc23)nc1 [compound 433] | 0.056 | 0.004
7 | COc1cc(OC)c2c(Oc3ccc(Nc4nnc(-c5ccc(Cl)cc5)c5ccccc45)cc3)ccnc2c1 [compound 435] | 0.038 | 0.121
8 | COc1cc(OC)c2c(Sc3ccc(Nc4nnc(-c5ccc(Cl)cc5)c5ccccc45)cc3)ccnc2c1 [compound 436] | 0.401 | 0.675
9 | COc1cc(F)cc2nccc(Sc3ccc(Nc4nnc(-c5ccc(Cl)cc5)c5ccccc45)cc3)c12 [compound 438] | 0.112 | 0.051
10 | COc1cc(F)cc2nccc(Sc3ccc(Nc4nnc(-c5cc(C)cs5)c5ccccc45)cc3)c12 [compound 440] | 0.585 | 0.596
11 | FC1(F)Oc2ccc(-c3nnc(Nc4ccc(Sc5ccnc6cccnc56)cc4)c4ccccc34)cc2O1 [compound 444] | 0.128 | 0.022
12 | c1cnc2c(Sc3ccc(Nc4nnc(-c5ccc6c(c5)CCO6)c5ccccc45)cc3)ccnc2c1 [compound 445] | 0.03 | 0.013
13 | c1cnc2c(Sc3ccc(Nc4nnc(-c5ccc6occc6c5)c5ccccc45)cc3)ccnc2c1 [compound 446] | 0.035 | 0.011
14 | Clc1ccc(-c2nnc(Nc3ccc(Oc4ccnc5cccnc45)cc3)c3ccccc23)cc1 [compound 448] | 0.039 | 0.011
15 | COCCOc1cc(-c2nnc(Nc3ccc(Sc4ccnc5cc(OC)cnc45)cc3)c3ccccc23)ccc1Cl [compound 450] | 0.101 | 0.054
16 | COc1cnc2c(Sc3ccc(Nc4nnc(-c5ccc(C)c(O)c5)c5ccccc45)cc3)ccnc2c1 [compound 451] | 0.078 | 0.033
17 | Oc1cc(-c2nnc(Nc3ccc(Sc4ccnc5cccnc45)cc3)c3ccccc23)ccc1Cl [compound 452] | 0.058 | 0.003
18 | COc1cnc2c(Sc3ccc(Nc4nnc(-c5ccc6cn[nH]c6c5)c5ccccc45)cc3)ccnc2c1 [compound 453] | 0.028 | 0.032
19 | COc1cnc2c(Oc3c(F)cc(Nc4nnc(-c5ccc(Cl)cc5)c5ccccc45)cc3F)ccnc2c1 [compound 454] | 0.05 | 0.01
20 | Fc1ccc2c(Oc3ccc(Nc4nnc(-c5ccc(Cl)cc5)c5ccccc45)cc3)ccnc2c1 [compound 455] | > 125 | 0.013
21 | N#Cc1cc2nccc(Sc3ccc(Nc4nnc(-c5ccc6c(c5)OCO6)c5ccccc45)cc3)c2s1 [compound 457] | 0.062 | 0.015
22 | c1ccc(-c2nnc(Nc3ccc(Sc4ccnc5cc[nH]c45)cc3)c3ccccc23)cc1 [compound 462, 4-phenyl-N-(4-(1H-pyrrolo[3,2-b]pyridin-7-ylthio)phenyl)-1-phthalazinamine] | 0.557 | 0.01
23 | Clc1ccc(-c2nnc(Nc3ccc(Sc4ccnc5cc[nH]c45)cc3)c3ccccc23)cc1 [compound 463, 4-(4-chlorophenyl)-N-(4-(1H-pyrrolo[3,2-b]pyridin-7-ylthio)phenyl)-1-phthalazinamine] | 0.146 | 0.008
24 | Clc1ccc(-c2nnc(Nc3ccc(Sc4ccnc5ccoc45)cc3)c3ccccc23)cc1 [compound 465] | 0.093 | 0.012
25 | Cc1csc(-c2nnc(Nc3ccc(Sc4ccnc5ccoc45)cc3)c3ccccc23)c1 [compound 468] | 0.129 | 0.029
26 | CC(C)n1ccc2nccc(Sc3ccc(Nc4nnc(-c5ccc(Cl)cc5)c5ccccc45)cc3)c21 [compound 471, 4-(4-chlorophenyl)-N-(4-((1-(1-methylethyl)-1H-pyrrolo[3,2-b]pyridin-7-yl)thio)phenyl)-1-phthalazinamine] | 0.09 | 0.049
27 | COCCOc1ccc(-c2nnc(Nc3ccc(Sc4ccnc5cc(OC)cnc45)cc3)c3ccccc23)cc1OCCOC [compound 473] | 0.073 | 0.011
28 | COCCOCCn1c(=O)ccc2nccc(Sc3ccc(Nc4nnc(-c5ccc(Cl)cc5)c5ccccc45)cc3)c21 [compound 476] | 0.746 | 0.293

The next lines start with the values.

Row | IC50 [1] [µM] | IC50 [2] [µM] | Structure (SMILES)
29 | 0.122 | 0.012 | Cc1ccc(-c2nnc(Nc3ccc(Oc4ccnc5ccncc45)cc3)c3ccccc23)nc1 [compound 432]
30 | 0.109 | 0.109 | COCCOc1ccc2nccc(Sc3ccc(Nc4nnc(-c5ccc(Cl)cc5)c5ccccc45)cc3)c2c1 [compound 434]
31 | 0.042 | 0.035 | COc1cc(F)cc2nccc(Oc3ccc(Nc4nnc(-c5ccc(Cl)cc5)c5ccccc45)cc3)c12 [compound 437]
32 | 1.66 | 3.2 | COc1cc(OC)c2c(Sc3ccc(Nc4nnc(-c5cc(C)cs5)c5ccccc45)cc3)ccnc2c1 [compound 439]
33 | 0.456 | 0.135 | COc1cc(OC)c2c(Oc3ccc(Nc4nnc(-c5cc(C)cs5)c5ccccc45)cc3)ccnc2c1 [compound 441]
34 | 0.157 | 0.017 | COc1cc(F)cc2nccc(Oc3ccc(Nc4nnc(-c5cc(C)cs5)c5ccccc45)cc3)c12 [compound 442]
35 | 0.012 | 0.002 | c1cnc2c(Sc3ccc(Nc4nnc(-c5ccc6c(c5)OCO6)c5ccccc45)cc3)ccnc2c1 [compound 443]
36 | 0.027 | 0.013 | Cc1csc(-c2nnc(Nc3ccc(Oc4ccnc5cccnc45)cc3)c3ccccc23)c1 [compound 447]
37 | 0.026 | 0.006 | COc1cnc2c(Oc3ccc(Nc4nnc(-c5ccc(C)c(O)c5)c5ccccc45)cc3)ccnc2c1 [compound 449]
38 | 1 | 0.058 | COc1cnnc(Nc2ccc(Oc3ccnc4cc(OC)cnc34)cc2)c1 [compound 456]
39 | > 25 | 0.097 | N#Cc1cc2nccc(Sc3ccc(Nc4nnc(-c5ccccc5)c5ccccc45)cc3)c2s1 [compound 458]
40 | 0.21 | 0.15 | Cc1csc(-c2nnc(Nc3ccc(Sc4ccnc5cc(C#N)sc45)cc3)c3ccccc23)c1 [compound 459]
41 | 0.045 | 0.015 | N#Cc1cc2nccc(Sc3ccc(Nc4nnc(-c5ccc(Cl)cn5)c5ccccc45)cc3)c2s1 [compound 460]
42 | 0.044 | 0.009 | Cc1ccc(-c2nnc(Nc3ccc(Sc4ccnc5cc(C#N)sc45)cc3)c3ccccc23)cn1 [compound 461]
43 | 0.088 | 0.006 | Cc1csc(-c2nnc(Nc3ccc(Sc4ccnc5cc[nH]c45)cc3)c3ccccc23)c1 [compound 464, 4-(4-methyl-2-thienyl)-N-(4-(1H-pyrrolo[3,2-b]pyridin-7-ylthio)phenyl)-1-phthalazinamine]
44 | 0.431 | 0.013 | c1ccc(-c2nnc(Nc3ccc(Sc4ccnc5ccoc45)cc3)c3ccccc23)cc1 [compound 466]
45 | 0.095 | 0.01 | c1ccc2c(-c3ccc4c(c3)OCO4)nnc(Nc3ccc(Sc4ccnc5ccoc45)cc3)c2c1 [compound 467]
46 | 0.11 | 0.053 | COCCn1ccc2nccc(Sc3ccc(Nc4nnc(-c5ccc(Cl)cc5)c5ccccc45)cc3)c21 [compound 469, 4-(4-chlorophenyl)-N-(4-((1-(2-(methyloxy)ethyl)-1H-pyrrolo[3,2-b]pyridin-7-yl)thio)phenyl)-1-phthalazinamine]
47 | 0.041 | 0.051 | COCCn1ccc2nccc(Sc3ccc(Nc4nnc(-c5cc(C)cs5)c5ccccc45)cc3)c21 [compound 470, N-(4-((1-(2-(methyloxy)ethyl)-1H-pyrrolo[3,2-b]pyridin-7-yl)thio)phenyl)-4-(4-methyl-2-thienyl)-1-phthalazinamine]
48 | 0.064 | 0.099 | Cc1csc(-c2nnc(Nc3ccc(Sc4ccnc5ccn(C(C)C)c45)cc3)c3ccccc23)c1 [compound 472, N-(4-((1-(1-methylethyl)-1H-pyrrolo[3,2-b]pyridin-7-yl)thio)phenyl)-4-(4-methyl-2-thienyl)-1-phthalazinamine]
49 | 0.051 | 0.016 | COCCOc1ccc(-c2nnc(Nc3ccc(Sc4ccnc5cc(OC)cnc45)cc3)c3ccccc23)cc1 [compound 474]
50 | 0.035 | 0.026 | COCCOCCOc1ccc2nccc(Sc3ccc(Nc4nnc(-c5ccc(Cl)cc5)c5ccccc45)cc3)c2n1 [compound 475]
